These results are taken from US20230120597A1, “CO-AGONISTS AT GLP-1 AND GIP RECEPTORS SUITABLE FOR ORAL DELIVERY” (Novo Nordisk A/S, priority 2020, published 2023).

pEC50: −log10 of the molar value. Like-named read-outs stand apart in the source and are kept apart here. Starred links: 1 amine or outer side, 2 acyl side, 3 side chain; linkers in the order of their positions; H or OH if unused. Non-standard residues stand in square brackets, D forms with d. Residues, ends and D or L forms follow the SMILES beside them. Groups on a side chain read outwards from the residue. *: point of attachment. C18 diacid = O=C(O)CCCCCCCCCCCCCCCCC(=O)*; γGlu = O=C(O)[C@H](CCC(=O)[*:2])N[*:1]; εLys = N[C@@H](CCCCN[*:1])C(=O)[*:2]; AEEA = NCCOCCOCC(=O)O; Aib = CC(C)(N)C(=O)O

The nature of series [1]: Pharmacokinetic study in dogs, oral dosing of tablet compositions with SNAC. The note with it: dog, in vivo, po; for Tmax / half-life: male, beagle; for half-life: t1/2. In kind it is in vivo, Beagle dogs. A digest of the protocol: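 The tablets held 3-4 mg compound plus 100-300 mg SNAC and were given to fasted male beagles (6-8 per group); non-compartmental PK per animal.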

The target in the next series is T1, human GIP receptor (Homo sapiens, UniProt P48546).
T1 construct: expressed in transfected cells; host or cells: BHK (parent line BHKTS13), clone BHK CRE luc2P hGIPR
T1 sequence (P48546 22-466): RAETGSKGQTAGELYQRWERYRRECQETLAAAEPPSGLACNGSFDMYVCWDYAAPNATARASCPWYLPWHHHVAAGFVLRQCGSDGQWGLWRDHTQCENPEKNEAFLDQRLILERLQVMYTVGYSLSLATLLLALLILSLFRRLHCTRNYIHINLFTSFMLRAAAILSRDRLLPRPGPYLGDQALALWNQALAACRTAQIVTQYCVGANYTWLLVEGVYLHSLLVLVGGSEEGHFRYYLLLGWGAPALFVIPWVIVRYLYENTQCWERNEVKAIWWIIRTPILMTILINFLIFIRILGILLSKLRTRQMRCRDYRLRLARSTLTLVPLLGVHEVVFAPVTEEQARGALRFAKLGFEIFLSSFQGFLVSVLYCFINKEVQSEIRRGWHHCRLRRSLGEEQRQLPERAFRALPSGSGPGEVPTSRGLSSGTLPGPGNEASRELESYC
The series can be described thus: In vitro functional potency, CRE luciferase reporter gene assay, whole BHK cells expressing hGIPR. Type of series: cell-based. As to conditions: BHK CRE luc2P hGIPR cells. As for the experimental part: (§1) The in vitro functional potency is the measure of target receptor activation in a whole cell assay.
(§2) In vitro functional potency was determined by measuring the response of the target receptor in a reporter gene assay in individual cell lines. […] When the respective receptor is activated, it results in the production of cAMP, which in turn results in expression of the luciferase protein. When assay incubation is completed, luciferase substrate (luciferin) is added resulting in the enzymatic conversion of luciferin to oxyluciferin and producing bioluminescence. The luminescence is measured as the readout for the assay.
(§3) The cells lines used in these assays were BHK cells with BHKTS13 as a parent cell line. The cell lines were derived from a clone containing the CRE luciferase element and were established by further transfection with the respective human receptor to obtain the relevant cell line: BHK CRE luc2P hGLP-1R or BHK CRE luc2P hGIPR. The cells were cultured at 37° C. with 5% CO2 in Cell Culture Medium. They were aliquoted and stored in liquid nitrogen. The cells were kept in continuous culture and were seeded out the day before each assay.
(§4) GLP-1R Cell Culture Medium consisted of DMEM medium with 10% FBS, 500 μg/mL G418, and 300 μg/mL hygromycin. GIPR Cell Culture Medium consisted of DMEM medium with 10% FBS, 400 μg/mL G418, and 300 μg/mL hygromycin. Assay Buffer consisted of DMEM w/o phenol red, 10 mM Hepes, 1× Glutamax. 1% ovalbumin, and 0.1% Pluronic F-68 with the addition of HSA at twice the final assay concentration.
(§5) Procedure • 1) Cells were plated at 5000 cells/well and incubated overnight in the assay plate. • 2) Cells were washed once in DPBS. • 3) Stocks of the test compounds and reference compounds in concentrations ranging from […] were diluted 1:150 in Assay Buffer. Compounds were then diluted 1:10 in column 1 of a 96 deep well dilution plate and then carried across the row creating a 3.5 fold, 12 point dilution curve. • 4) Assay Buffer (50 μl aliquot) with or without HSA was added to each well in the assay plate. • 5) A 50 μl aliquot of compound or blank was transferred from the dilution plate to the assay plate containing the Assay Buffer with or without HSA. • 6) The assay plate was incubated for 3 h in a 5% CO2 incubator at 37° C. • 7) The cells were washed once with DPBS. • 8) A 100 μl aliquot of DPBS was added to each well of the assay plate. • 9) A 100 μl aliquot of steadylite plus reagent (light sensitive) was added to each well of the assay plate. • 10) Each assay plate was covered with aluminum foil to protect it from light and shaken at 250 RPM for 30 min at room temperature. • 11) Each assay plate was read in a microtiter plate reader.
(§6) The data from the microtiter plate reader was first regressed in an Excel in order to calculate the x-axis, log scale concentrations based on the individual test compound's stock concentration and the dilutions of the assay. […] The software performs a non-linear regression (log(agonist) vs response). A minimum of two replicates was measured for each sample. The reported values are averages of the replicates.
Background: A reporter such as luciferase makes a cellular process visible.

Another series has as its target T2, human GLP-1 receptor (Homo sapiens, UniProt P43220).
T2 construct: expressed in transfected cells; host or cells: BHK (parent line BHKTS13), clone BHK CRE luc2P hGLP-1R
Description: In vitro functional potency, CRE luciferase reporter gene assay, whole BHK cells expressing hGLP-1R. Type of series: cell-based. As to conditions: BHK CRE luc2P hGLP-1R cells. As for the experimental part:
as §1, §2, §3, §4, §5, §6

For series [2] the following is noted: in vivo; cited from earlier work.
Where [3] appears, read: 0% HSA, read-out: hGIPR, CRE Luc 0% HSA EC50.
The mark [4] stands for this setting: hGIPR, CRE Luc 1% HSA EC50, 1% HSA.
Where [5] appears, read: 0% HSA, read-out: hGLP-1R, CRE Luc 0% HSA EC50.
The mark [6] stands for this setting: hGLP-1R, CRE Luc 1% HSA EC50, 1% HSA.

T2 sequence (P43220 24-463): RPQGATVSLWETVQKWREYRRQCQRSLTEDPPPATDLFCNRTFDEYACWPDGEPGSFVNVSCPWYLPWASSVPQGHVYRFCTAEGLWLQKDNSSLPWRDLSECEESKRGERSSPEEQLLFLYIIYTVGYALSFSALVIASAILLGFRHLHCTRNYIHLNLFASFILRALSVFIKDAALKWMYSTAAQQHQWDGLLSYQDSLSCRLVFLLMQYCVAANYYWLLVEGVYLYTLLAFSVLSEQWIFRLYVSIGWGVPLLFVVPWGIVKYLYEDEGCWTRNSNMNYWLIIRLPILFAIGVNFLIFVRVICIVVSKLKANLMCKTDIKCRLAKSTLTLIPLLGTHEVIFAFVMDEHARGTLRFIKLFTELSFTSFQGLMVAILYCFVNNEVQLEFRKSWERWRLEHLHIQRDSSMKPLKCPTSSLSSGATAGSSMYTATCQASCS

What is called Tmax is the time at which the peak concentration occurs. What is called half-life is how long it takes for the measured level to halve. Broadly, the pEC50 is −log10 of the EC50, conventionally taken in molar units. The compound `CC[C@H](C)[C@H](NC(=O)[C@H](Cc1ccccc1)NC(=O)[C@H](CCC(=O)O)NC(=O)[C@H](CCCNC(=N)N)NC(=O)[C@H](C)NC(=O)[C@H](C)NC(=O)[C@H](CCC(N)=O)NC(=O)[C@H](CCCCNC(=O)[C@@H](N)CCCCNC(=O)[C@@H](N)CCCCNC(=O)CC[C@H](NC(=O)CCCCCCCCCCCCCCCCC(=O)O)C(=O)O)NC(=O)[C@H](CCC(=O)O)NC(=O)[C@H](CC(C)C)NC(=O)[C@H](Cc1ccc(O)cc1)NC(=O)[C@@H](NC(=O)[C@H](CO)NC(=O)[C@H](Cc1ccc(O)cc1)NC(=O)[C@H](CC(=O)O)NC(=O)[C@H](CO)NC(=O)[C@@H](NC(=O)[C@H](Cc1ccccc1)NC(=O)[C@@H](NC(=O)CNC(=O)[C@H](CCC(=O)O)NC(=O)C(C)(C)NC(=O)[C@@H](N)Cc1ccc(O)cc1)[C@@H](C)O)[C@@H](C)O)[C@@H](C)CC)C(=O)N[C@@H](CCC(=O)O)C(=O)N[C@@H](Cc1c[nH]c2ccccc12)C(=O)N[C@@H](CC(C)C)C(=O)N[C@@H](CC(C)C)C(=O)N[C@@H](C)C(=O)NCC(=O)NCC(=O)N1CCC[C@H]1C(=O)N[C@@H](CO)C(=O)N[C@@H](CO)C(=O)NCC(=O)N[C@@H](C)C(=O)N1CCC[C@H]1C(=O)N1CCC[C@H]1C(=O)N1CCC[C@H]1C(=O)N[C@@H](CO)C(=O)O` [Compound No. 9] (H-Y[Aib]EGTFTSDYSIYLEK([εLys-εLys-γGlu-C18 diacid])QAAREFIEWLLAGGPSSGAPPPS-OH) had an AUC/Dose in series [1] of 12.1 kg·h/L. In addition, the Tmax in series [1] came out at 2 h. The compound also showed a half-life in series [1] of 50 h. Moreover, the negative logarithm of the EC50 (pEC50) at human GIP receptor (setting [3]) is […]; on human GIP receptor (setting [4]) it was […]; on human GLP-1 receptor (setting [5]) it was 11.42; at human GLP-1 receptor (setting [6]), 9.55.

Regarding `CC[C@H](C)[C@H](NC(=O)[C@H](Cc1ccccc1)NC(=O)[C@H](CCC(=O)O)NC(=O)[C@H](CCCNC(=N)N)NC(=O)[C@H](C)NC(=O)[C@H](C)NC(=O)[C@H](CCC(N)=O)NC(=O)[C@H](CCCCNC(=O)[C@@H](N)CCCCNC(=O)[C@@H](N)CCCCNC(=O)CC[C@H](NC(=O)CCCCCCCCCCCCCCCCC(=O)O)C(=O)O)NC(=O)[C@H](CCC(=O)O)NC(=O)[C@H](CC(C)C)NC(=O)[C@H](Cc1ccc(O)cc1)NC(=O)[C@@H](NC(=O)[C@H](CO)NC(=O)[C@H](Cc1ccc(O)cc1)NC(=O)[C@H](CC(=O)O)NC(=O)[C@H](CO)NC(=O)[C@@H](NC(=O)[C@H](Cc1ccccc1)NC(=O)[C@@H](NC(=O)CNC(=O)[C@H](CCC(=O)O)NC(=O)C(C)(C)NC(=O)[C@@H](N)Cc1ccc(O)cc1)[C@@H](C)O)[C@@H](C)O)[C@@H](C)CC)C(=O)N[C@@H](CC(N)=O)C(=O)N[C@@H](Cc1c[nH]c2ccccc12)C(=O)N[C@@H](CC(C)C)C(=O)N[C@@H](CC(C)C)C(=O)N[C@@H](C)C(=O)NCC(=O)NCC(=O)N1CCC[C@H]1C(=O)N[C@@H](CO)C(=O)N[C@@H](CO)C(=O)NCC(=O)N[C@@H](C)C(=O)N1CCC[C@H]1C(=O)N1CCC[C@H]1C(=O)N1CCC[C@H]1C(=O)N[C@@H](CO)C(=O)O` [Compound No. 11] (H-Y[Aib]EGTFTSDYSIYLEK([εLys-εLys-γGlu-C18 diacid])QAAREFINWLLAGGPSSGAPPPS-OH; N-terminus assumed), the AUC/Dose in series [1] was 7.1 kg·h/L. The Tmax in series [1] was found to be 1.4 h. The half-life in series [1] is 34 h. Further, the negative-log EC50 (pEC50) at human GIP receptor (setting [3]) was 11.00; at human GIP receptor (setting [4]) it was 9.35; on human GLP-1 receptor (setting [5]) it was 11.48; at human GLP-1 receptor (setting [6]), 9.88.

The compound `CC[C@H](C)[C@H](NC(=O)[C@H](Cc1ccccc1)NC(=O)[C@H](CCC(=O)O)NC(=O)[C@H](CCCNC(=N)N)NC(=O)[C@H](C)NC(=O)[C@H](C)NC(=O)[C@H](CCC(N)=O)NC(=O)[C@H](CCCCNC(=O)COCCOCCNC(=O)COCCOCCNC(=O)CC[C@H](NC(=O)CCCCCCCCCCCCCCCCC(=O)O)C(=O)O)NC(=O)[C@H](CCC(=O)O)NC(=O)[C@H](CC(C)C)NC(=O)[C@H](Cc1ccc(O)cc1)NC(=O)[C@@H](NC(=O)[C@H](CO)NC(=O)[C@H](Cc1ccc(O)cc1)NC(=O)[C@H](CC(=O)O)NC(=O)[C@H](CO)NC(=O)[C@@H](NC(=O)[C@H](Cc1ccccc1)NC(=O)[C@@H](NC(=O)CNC(=O)[C@H](CCC(=O)O)NC(=O)C(C)(C)NC(=O)[C@@H](N)Cc1ccc(O)cc1)[C@@H](C)O)[C@@H](C)O)[C@@H](C)CC)C(=O)N[C@@H](CCC(=O)O)C(=O)N[C@@H](Cc1c[nH]c2ccccc12)C(=O)N[C@@H](CC(C)C)C(=O)N[C@@H](CC(C)C)C(=O)N[C@@H](C)C(=O)NCC(=O)NCC(=O)N1CCC[C@H]1C(=O)N[C@@H](CO)C(=O)N[C@@H](CO)C(=O)NCC(=O)N[C@@H](C)C(=O)N1CCC[C@H]1C(=O)N1CCC[C@H]1C(=O)N1CCC[C@H]1C(=O)N[C@@H](CO)C(=O)O` [Compound No. 10] (H-Y[Aib]EGTFTSDYSIYLEK([AEEA-AEEA-γGlu-C18 diacid])QAAREFIEWLLAGGPSSGAPPPS-OH) returned an AUC/Dose in series [1] of 8.4 kg·h/L. Further, the time of peak concentration (Tmax) in series [1] was 1 h. In series [1], this compound had a half-life of 36 h. The negative-log EC50 (pEC50) on human GIP receptor (setting [3]) is 10.95; at human GIP receptor (setting [4]), 8.76; on human GLP-1 receptor (setting [5]), 11.41; at human GLP-1 receptor (setting [6]), 9.03.

For the compound “hGLP-1: human glucagon-like peptide 1, native hormone whose half-life in man is cited from Meier et al.”, in series [2], the “half-life measured in man” value was 2 to 4 min.
